Earlier results in paper PMC9851200, “Multiparameter phenotypic screening for endogenous TFEB and TFE3 translocation identifies novel chemical series modulating lysosome function” (Autophagy, 2022).

How the values were obtained:
Design in all cases: method as in original PKIS2 published data
[1] = molecular target: T1, kinases (KINOMEscan panel) (Homo sapiens, UniProt O15197); details: kinase EPHB6; Published KINOMEscan; ref original PKIS2 published data; cited from earlier work
T1 sequence (O15197 32-1021): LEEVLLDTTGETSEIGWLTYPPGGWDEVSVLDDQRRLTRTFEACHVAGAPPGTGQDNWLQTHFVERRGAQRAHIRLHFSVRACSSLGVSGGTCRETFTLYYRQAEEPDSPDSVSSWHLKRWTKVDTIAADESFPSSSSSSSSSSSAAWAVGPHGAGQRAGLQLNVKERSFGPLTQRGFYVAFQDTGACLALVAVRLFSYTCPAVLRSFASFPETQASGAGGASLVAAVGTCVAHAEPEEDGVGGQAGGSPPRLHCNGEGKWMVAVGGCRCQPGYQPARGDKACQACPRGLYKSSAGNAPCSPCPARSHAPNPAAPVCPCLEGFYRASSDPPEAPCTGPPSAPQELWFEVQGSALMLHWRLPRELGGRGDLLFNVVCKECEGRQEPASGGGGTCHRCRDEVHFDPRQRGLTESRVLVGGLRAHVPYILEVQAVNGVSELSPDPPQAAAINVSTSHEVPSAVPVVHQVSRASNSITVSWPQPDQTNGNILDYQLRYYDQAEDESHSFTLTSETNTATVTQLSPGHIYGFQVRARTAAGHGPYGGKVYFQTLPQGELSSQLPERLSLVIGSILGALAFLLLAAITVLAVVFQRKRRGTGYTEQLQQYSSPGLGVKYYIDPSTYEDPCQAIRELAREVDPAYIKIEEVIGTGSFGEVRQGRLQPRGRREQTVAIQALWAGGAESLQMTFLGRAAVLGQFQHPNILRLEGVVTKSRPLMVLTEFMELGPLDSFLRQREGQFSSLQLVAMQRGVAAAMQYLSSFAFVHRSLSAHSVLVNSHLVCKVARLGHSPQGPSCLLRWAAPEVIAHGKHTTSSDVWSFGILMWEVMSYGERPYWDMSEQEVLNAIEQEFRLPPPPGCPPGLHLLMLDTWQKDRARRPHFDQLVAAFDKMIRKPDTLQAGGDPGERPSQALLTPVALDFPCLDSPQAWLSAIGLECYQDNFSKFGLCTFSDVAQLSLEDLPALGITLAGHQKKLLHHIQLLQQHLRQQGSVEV

[2] = molecular target: kinases (KINOMEscan panel) (Homo sapiens, UniProt Q08345); details: DDR1; Published KINOMEscan; ref original PKIS2 published data; cited from earlier work
[3] = molecular target: kinases (KINOMEscan panel) (Homo sapiens, UniProt Q9UM73); details: kinase ALK; Published KINOMEscan; ref original PKIS2 published data; cited from earlier work
[4] = molecular target: kinases (KINOMEscan panel) (Homo sapiens, UniProt P49761); details: CLK3; Published KINOMEscan; ref original PKIS2 published data; cited from earlier work
[5] = molecular target: kinases (KINOMEscan panel) (Homo sapiens, UniProt P51617); details: kinase IRAK1; Published KINOMEscan; ref original PKIS2 published data; cited from earlier work
[6] = molecular target: T2, kinases (KINOMEscan panel) (Homo sapiens, UniProt P43403); details: Published KINOMEscan; ref original PKIS2 published data; cited from earlier work
T2 sequence (P43403 1-619): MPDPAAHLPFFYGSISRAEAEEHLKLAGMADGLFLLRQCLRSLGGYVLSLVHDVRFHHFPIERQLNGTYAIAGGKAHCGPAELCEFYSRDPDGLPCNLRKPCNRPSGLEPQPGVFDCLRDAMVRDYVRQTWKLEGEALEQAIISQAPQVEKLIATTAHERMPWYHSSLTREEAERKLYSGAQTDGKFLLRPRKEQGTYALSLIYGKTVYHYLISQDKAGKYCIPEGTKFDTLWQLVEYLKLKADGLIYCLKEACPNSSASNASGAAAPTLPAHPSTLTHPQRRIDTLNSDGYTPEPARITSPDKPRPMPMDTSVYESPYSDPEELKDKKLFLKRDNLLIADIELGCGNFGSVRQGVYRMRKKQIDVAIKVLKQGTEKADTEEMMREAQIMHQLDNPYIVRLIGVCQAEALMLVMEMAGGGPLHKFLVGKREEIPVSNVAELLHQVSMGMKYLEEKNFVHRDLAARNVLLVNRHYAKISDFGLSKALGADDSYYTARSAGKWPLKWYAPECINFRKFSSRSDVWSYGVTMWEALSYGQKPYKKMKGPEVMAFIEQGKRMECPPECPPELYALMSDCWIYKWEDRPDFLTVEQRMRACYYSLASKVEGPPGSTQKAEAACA

[7] = molecular target: kinases (KINOMEscan panel) (Homo sapiens, UniProt Q9BVS4); details: RIOK2; Published KINOMEscan; ref original PKIS2 published data; cited from earlier work
[8] = molecular target: kinases (KINOMEscan panel) (Homo sapiens, UniProt Q13523); details: PRPF4B; Published KINOMEscan; ref original PKIS2 published data; cited from earlier work
[9] = molecular target: T3, kinases (KINOMEscan panel) (Homo sapiens, UniProt P42681); details: kinase TXK; Published KINOMEscan; ref original PKIS2 published data; cited from earlier work
T3 sequence (P42681 1-527): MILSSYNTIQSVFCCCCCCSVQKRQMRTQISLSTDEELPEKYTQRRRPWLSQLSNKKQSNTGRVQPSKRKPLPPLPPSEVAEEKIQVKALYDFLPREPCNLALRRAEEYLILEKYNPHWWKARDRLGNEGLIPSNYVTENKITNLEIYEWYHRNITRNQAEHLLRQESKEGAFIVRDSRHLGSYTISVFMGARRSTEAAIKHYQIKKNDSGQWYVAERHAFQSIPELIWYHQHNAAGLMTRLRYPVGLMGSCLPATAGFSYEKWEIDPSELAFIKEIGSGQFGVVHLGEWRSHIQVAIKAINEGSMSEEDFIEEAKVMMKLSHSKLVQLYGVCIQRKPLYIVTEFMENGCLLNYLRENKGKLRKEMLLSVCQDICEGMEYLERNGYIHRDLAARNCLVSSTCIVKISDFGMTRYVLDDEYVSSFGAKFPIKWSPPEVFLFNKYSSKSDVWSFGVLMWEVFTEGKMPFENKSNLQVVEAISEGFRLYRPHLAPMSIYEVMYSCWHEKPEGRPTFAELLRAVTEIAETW

kinases (KINOMEscan panel) (Homo sapiens, UniProt P49761), sequence (P49761 whole entry): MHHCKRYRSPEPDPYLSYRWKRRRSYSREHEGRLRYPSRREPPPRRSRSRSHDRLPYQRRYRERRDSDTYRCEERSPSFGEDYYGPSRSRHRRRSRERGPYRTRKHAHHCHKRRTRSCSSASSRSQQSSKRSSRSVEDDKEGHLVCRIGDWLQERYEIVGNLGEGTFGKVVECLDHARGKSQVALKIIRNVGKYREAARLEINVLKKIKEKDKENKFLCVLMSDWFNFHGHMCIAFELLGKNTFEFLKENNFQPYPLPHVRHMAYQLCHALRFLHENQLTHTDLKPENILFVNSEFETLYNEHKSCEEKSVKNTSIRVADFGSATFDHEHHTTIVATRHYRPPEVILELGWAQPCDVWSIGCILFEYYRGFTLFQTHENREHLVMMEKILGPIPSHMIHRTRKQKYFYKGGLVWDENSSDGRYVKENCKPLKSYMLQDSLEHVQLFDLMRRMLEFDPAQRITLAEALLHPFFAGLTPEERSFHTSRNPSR
kinases (KINOMEscan panel) (Homo sapiens, UniProt Q08345), sequence (Q08345 19-913): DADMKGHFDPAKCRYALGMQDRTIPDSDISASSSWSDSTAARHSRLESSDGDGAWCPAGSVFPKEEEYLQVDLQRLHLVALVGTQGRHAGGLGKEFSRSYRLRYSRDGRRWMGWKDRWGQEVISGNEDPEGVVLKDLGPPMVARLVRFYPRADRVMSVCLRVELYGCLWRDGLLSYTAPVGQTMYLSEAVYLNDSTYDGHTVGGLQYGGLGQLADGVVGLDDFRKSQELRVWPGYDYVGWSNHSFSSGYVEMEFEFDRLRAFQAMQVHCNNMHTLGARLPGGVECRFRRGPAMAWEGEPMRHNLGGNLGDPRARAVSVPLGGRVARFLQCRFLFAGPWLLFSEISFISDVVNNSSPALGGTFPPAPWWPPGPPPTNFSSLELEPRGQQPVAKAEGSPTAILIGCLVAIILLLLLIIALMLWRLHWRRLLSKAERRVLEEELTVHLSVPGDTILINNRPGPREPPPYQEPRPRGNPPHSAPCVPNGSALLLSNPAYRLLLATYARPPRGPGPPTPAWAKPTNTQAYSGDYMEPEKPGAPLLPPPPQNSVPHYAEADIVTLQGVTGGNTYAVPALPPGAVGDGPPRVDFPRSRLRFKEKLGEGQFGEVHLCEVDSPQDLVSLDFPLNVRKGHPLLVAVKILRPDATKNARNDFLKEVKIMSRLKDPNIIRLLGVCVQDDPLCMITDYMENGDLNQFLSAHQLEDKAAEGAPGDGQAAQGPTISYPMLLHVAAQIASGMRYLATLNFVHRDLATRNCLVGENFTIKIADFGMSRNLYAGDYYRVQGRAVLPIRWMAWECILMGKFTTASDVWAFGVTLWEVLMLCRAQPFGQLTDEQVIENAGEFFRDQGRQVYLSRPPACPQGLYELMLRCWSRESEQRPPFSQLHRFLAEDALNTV
kinases (KINOMEscan panel) (Homo sapiens, UniProt Q9UM73), sequence (Q9UM73 19-1620): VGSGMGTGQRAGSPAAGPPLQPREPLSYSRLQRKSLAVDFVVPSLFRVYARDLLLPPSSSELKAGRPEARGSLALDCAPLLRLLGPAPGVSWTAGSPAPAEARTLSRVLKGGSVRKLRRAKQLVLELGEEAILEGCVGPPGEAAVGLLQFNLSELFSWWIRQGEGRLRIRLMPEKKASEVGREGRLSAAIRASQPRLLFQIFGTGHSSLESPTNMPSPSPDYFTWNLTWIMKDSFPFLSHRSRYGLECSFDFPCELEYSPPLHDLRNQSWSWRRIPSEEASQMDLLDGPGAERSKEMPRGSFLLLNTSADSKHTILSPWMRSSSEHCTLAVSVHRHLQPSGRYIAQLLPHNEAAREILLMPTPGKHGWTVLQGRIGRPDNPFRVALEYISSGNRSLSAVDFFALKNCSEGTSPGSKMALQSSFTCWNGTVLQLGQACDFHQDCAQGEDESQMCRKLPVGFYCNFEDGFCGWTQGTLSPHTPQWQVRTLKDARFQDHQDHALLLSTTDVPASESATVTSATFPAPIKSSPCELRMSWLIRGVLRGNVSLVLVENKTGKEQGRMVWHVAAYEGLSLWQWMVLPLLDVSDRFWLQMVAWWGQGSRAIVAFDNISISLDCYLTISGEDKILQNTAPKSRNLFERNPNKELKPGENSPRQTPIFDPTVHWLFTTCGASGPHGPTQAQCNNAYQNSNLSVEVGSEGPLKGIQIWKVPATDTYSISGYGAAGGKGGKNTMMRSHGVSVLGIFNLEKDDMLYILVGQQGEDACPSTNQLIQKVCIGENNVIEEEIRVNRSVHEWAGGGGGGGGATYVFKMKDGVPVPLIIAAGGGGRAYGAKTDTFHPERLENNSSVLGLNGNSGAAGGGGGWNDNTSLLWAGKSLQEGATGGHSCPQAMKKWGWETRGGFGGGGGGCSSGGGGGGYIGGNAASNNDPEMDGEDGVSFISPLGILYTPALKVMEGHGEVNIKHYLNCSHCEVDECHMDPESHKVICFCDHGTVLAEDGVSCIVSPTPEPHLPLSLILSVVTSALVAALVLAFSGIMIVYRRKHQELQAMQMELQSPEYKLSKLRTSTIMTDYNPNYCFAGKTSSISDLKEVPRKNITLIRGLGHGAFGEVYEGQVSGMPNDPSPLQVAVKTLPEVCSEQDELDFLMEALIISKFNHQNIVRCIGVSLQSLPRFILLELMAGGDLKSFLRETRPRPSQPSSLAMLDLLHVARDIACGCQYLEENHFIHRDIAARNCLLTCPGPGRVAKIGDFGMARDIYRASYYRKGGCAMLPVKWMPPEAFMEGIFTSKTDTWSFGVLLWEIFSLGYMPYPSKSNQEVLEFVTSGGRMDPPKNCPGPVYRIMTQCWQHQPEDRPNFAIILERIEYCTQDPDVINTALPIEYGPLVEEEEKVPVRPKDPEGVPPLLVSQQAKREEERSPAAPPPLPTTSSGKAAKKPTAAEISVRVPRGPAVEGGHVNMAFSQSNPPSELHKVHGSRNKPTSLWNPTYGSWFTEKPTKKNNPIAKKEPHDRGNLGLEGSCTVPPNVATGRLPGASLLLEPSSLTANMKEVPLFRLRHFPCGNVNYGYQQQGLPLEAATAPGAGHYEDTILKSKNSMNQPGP
kinases (KINOMEscan panel) (Homo sapiens, UniProt Q9BVS4), sequence (Q9BVS4 whole entry): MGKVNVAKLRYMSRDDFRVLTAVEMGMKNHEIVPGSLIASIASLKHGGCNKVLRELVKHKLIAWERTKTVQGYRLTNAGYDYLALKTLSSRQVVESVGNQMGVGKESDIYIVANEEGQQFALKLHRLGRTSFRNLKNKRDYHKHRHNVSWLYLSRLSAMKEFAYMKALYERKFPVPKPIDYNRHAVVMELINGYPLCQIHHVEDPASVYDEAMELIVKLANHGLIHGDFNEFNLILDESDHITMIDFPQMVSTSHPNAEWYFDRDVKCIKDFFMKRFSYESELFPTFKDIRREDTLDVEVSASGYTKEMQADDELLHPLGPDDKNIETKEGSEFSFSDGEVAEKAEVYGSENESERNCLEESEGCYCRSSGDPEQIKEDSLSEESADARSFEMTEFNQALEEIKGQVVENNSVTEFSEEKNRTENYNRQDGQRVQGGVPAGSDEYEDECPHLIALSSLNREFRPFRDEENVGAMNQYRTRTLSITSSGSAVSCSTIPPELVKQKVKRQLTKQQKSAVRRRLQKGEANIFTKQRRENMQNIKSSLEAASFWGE
kinases (KINOMEscan panel) (Homo sapiens, UniProt Q13523), sequence (Q13523 whole entry): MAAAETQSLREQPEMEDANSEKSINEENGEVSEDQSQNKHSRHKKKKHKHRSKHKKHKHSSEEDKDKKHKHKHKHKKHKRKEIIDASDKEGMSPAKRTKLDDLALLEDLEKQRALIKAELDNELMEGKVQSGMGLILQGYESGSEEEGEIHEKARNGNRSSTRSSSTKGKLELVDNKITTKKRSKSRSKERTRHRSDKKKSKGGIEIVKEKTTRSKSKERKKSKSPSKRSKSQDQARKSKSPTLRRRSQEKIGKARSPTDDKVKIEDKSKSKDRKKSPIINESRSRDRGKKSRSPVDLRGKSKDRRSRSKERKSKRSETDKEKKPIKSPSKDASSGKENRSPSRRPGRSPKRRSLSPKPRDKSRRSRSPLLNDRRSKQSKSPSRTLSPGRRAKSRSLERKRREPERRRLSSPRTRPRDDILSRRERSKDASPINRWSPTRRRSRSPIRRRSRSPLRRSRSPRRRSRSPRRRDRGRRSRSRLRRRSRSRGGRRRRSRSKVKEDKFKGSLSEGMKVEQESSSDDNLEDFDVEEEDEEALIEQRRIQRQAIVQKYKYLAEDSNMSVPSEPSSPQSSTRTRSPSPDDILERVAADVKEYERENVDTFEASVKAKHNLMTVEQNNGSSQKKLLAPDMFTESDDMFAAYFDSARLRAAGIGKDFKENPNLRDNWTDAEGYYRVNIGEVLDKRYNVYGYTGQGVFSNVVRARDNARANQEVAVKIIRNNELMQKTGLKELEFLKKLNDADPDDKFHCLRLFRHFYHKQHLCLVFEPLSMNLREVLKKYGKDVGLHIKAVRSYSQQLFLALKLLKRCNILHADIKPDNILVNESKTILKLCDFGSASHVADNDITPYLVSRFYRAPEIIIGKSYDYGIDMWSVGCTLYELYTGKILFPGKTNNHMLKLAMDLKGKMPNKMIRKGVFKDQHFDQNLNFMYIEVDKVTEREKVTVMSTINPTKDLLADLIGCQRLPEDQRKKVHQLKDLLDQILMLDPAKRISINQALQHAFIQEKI

In the case of `Cc1cccc(-c2nc(Nc3ccncc3)c3ccccc3n2)n1` [NK215], the “KINOMEscan EPHB6” value [1] is listed as 0, the “KINOMEscan DDR1” value [2] is listed as 30 and the “KINOMEscan ALK” value [3] is listed as 0. For the same compound, the “KINOMEscan CLK3” value [4] was 31, the “KINOMEscan IRAK1” value [5] was 0 and the “KINOMEscan ZAP70” value [6] was 0. For the same compound, the “KINOMEscan RIOK2” value [7] was 0, the “KINOMEscan PRPF4B” value [8] was 17 and the “KINOMEscan TXK” value [9] was 11.
